Test results reported in patent publication US10591496B2, “Analyte extraction apparatus and method” (Sphere Medical Limited, priority 2013, dated 2020).

Assays:
[1] = Zeitlinger et al. 2011, cited from earlier work
[2] = free and bound Vancomycin fractions by SPE extraction and Gibbs reaction colorimetry; assay type: in vitro ADME; conditions: commercially available whole human serum spiked with 29 μM Vancomycin, absorbance at 589 nm, n=3, error = standard deviation
Protocol: A 1 ml whole serum sample (WHS) spiked with Vancomycin is applied to a 30 mg/1 ml reversed phase Strata™-X (polystyrene-divinylbenzene-N-vinylpyrrolidone copolymer) SPE column from Phenomenex (Torrance, Calif.). The column is washed firstly with 2 ml water to remove weakly bound impurities. This washing step may be repeated if necessary. Then a known volume (1 ml) of an organic solvent such as, but not limited to, methanol is used to elute the free Vancomycin fraction from the sorbent. This optionally may be followed by another organic washing step, e.g. another washing step with an organic solvent, which may be the same solvent or a different solvent as used in the elution step. The bound Vancomycin fraction is then eluted from the SPE column using a known volume (0.5 ml) of a mixture of one-third water and two-thirds methanol (by volume).
A 350 μl fraction of each elute is then transferred into separate vials. Then 50 μl of 3.625 mM Gibbs in methanol is added to each vial, followed by 40 μl of 0.4 M sodium hydroxide in borate buffer or water, which initiates the coupling reaction and results in an immediate colour change. After a shake, typically 350 μl of each mixture is transferred into a cuvette and their spectra are measured via a spectrophotometer. […]

CN[C@H](CC(C)C)C(=O)N[C@H]1C(=O)N[C@@H](CC(N)=O)C(=O)N[C@H]2C(=O)N[C@H]3C(=O)N[C@H](C(=O)N[C@H](C(=O)O)c4cc(O)cc(O)c4-c4cc3ccc4O)[C@H](O)c3ccc(c(Cl)c3)Oc3cc2cc(c3O[C@@H]2O[C@H](CO)[C@@H](O)[C@H](O)[C@H]2O[C@H]2C[C@](C)(N)[C@H](O)[C@H](C)O2)Oc2ccc(cc2Cl)[C@H]1O [Vancomycin]
mean fraction bound ([1]; often quoted mean): 55%
protein bound (variation) ([1]; range of protein binding): 10-82%
percentage of Vancomycin free ([2]; methanol elute): 63±12%
percentage of Vancomycin bound ([2]; water/methanol (1:2) elute): 37±2%
